Values after ≈ are worked out from the molar mass of the structure shown. Read-outs that look alike come from different tables or passages of the source.
How the values were obtained:
Escherichia coli EC14 = experiment: standard agar-dilution MIC assay; format: cell-based
Description: (§1) The MIC's in Table III were determined by standard agar-dilution assays. The MIC's in Table IV were obtained using conventional brothdilution microtiter tests.

[1] = tested on: Klebsiella pneumoniae X68; experiment: standard agar-dilution MIC assay; format: cell-based; details: Klebsiella pneumoniae, X68
Description: as §1

[2] = tested on: Pseudomonas aeruginosa X239; experiment: standard agar-dilution MIC assay; format: cell-based; details: Pseudomonas aeruginosa, X239
Description: as §1

[3] = tested on: Staphylococcus aureus V41; experiment: standard agar-dilution MIC assay; format: cell-based; details: Staphylococcus aureus, V41
Description: as §1

[4] = tested on: Staphylococcus aureus X1.1; experiment: standard agar-dilution MIC assay; format: cell-based; details: Staphylococcus aureus, X1.1
Description: as §1

[5] = tested on: Staphylococcus aureus X400; experiment: standard agar-dilution MIC assay; format: cell-based; details: Staphylococcus aureus, X400
Description: as §1

[6] = tested on: Staphylococcus epidermidis EP12; experiment: standard agar-dilution MIC assay; format: cell-based
Description: as §1

[7] = tested on: Staphylococcus epidermidis EPI1; experiment: standard agar-dilution MIC assay; format: cell-based; details: Staphylococcus epidermidis, EPI1
Description: as §1

[8] = tested on: Streptococcus Group D 9960; experiment: standard agar-dilution MIC assay; format: cell-based; details: GROUPD9960, read-out: MIC
Description: as §1

[9] = tested on: Streptococcus Group D X66; experiment: standard agar-dilution MIC assay; format: cell-based; details: read-out: MIC
Description: as §1

[10] = tested on: Streptococcus pyogenes C203; experiment: standard agar-dilution MIC assay; format: cell-based; details: Streptococcus pyogenes, C203
Description: as §1

[11] = tested on: Staphylococcus aureus S13E; experiment: microbe, parasite or virus in culture; format: cell-based; details: Staphylococcus aureus, S13E
Description: as §1

[12] = tested on: Streptococcus pneumoniae Park I; experiment: microbe, parasite or virus in culture; format: cell-based; details: Streptococcus pneumoniae
Description: as §1

[13] = tested on: Bordetella bronchiseptica; experiment: broth-dilution microtiter MIC test; format: cell-based; details: Bordetella bronchiseptica
Description: as §1

[14] = tested on: Mycoplasma gallisepticum 15E; experiment: broth-dilution microtiter MIC test; format: cell-based; details: Mycoplasmoides gallisepticum, 15E
Description: as §1

[15] = tested on: Mycoplasma gallisepticum 29C; experiment: broth-dilution microtiter MIC test; format: cell-based; details: Mycoplasmoides gallisepticum, 29C
Description: as §1

[16] = tested on: Mycoplasma gallisepticum 36H; experiment: broth-dilution microtiter MIC test; format: cell-based; details: Mycoplasmoides gallisepticum, 36H
Description: as §1

Mycoplasma hyorhinis 29E = experiment: broth-dilution microtiter MIC test; format: cell-based; details: Mycoplasma, 29E
Description: as §1

Mycoplasma synoviae 40A = experiment: broth-dilution microtiter MIC test; format: cell-based; details: Mycoplasmopsis synoviae, 40A
Description: as §1

[17] = tested on: Pasteurella hemolytica 22C; experiment: broth-dilution microtiter MIC test; format: cell-based; details: Pasteurella, 22C
Description: as §1

[18] = tested on: Pasteurella hemolytica 23C; experiment: broth-dilution microtiter MIC test; format: cell-based; details: Pasteurella, 23C
Description: as §1

[19] = tested on: Pasteurella hemolytica 41D; experiment: broth-dilution microtiter MIC test; format: cell-based; details: Pasteurella, 41D
Description: as §1

[20] = tested on: Pasteurella multocida 17E; experiment: broth-dilution microtiter MIC test; format: cell-based; details: Pasteurella multocida, 17E
Description: as §1

[21] = tested on: Pasteurella multocida 22A; experiment: broth-dilution microtiter MIC test; format: cell-based; details: Pasteurella multocida, 22A
Description: as §1

[22] = tested on: Pasteurella multocida 40G; experiment: broth-dilution microtiter MIC test; format: cell-based; details: Pasteurella multocida, 40G
Description: as §1

[23] = tested on: Pasteurella multocida 60A; experiment: broth-dilution microtiter MIC test; format: cell-based; details: Pasteurella multocida, 60A
Description: as §1

[24] = tested on: Pasteurella multocida 68C; experiment: broth-dilution microtiter MIC test; format: cell-based; details: Pasteurella multocida, 68C
Description: as §1

[25] = tested on: Staphylococcus aureus 19C; experiment: broth-dilution microtiter MIC test; format: cell-based; details: Staphylococcus aureus, 19C
Description: as §1

Streptococcus sp. 19F = experiment: broth-dilution microtiter MIC test; format: cell-based; details: Streptococcus, SP.19F
Description: as §1

[26] = tested on: Streptococcus pyogenes C203; experiment: protection of mice experimentally infected with S. pyogenes C203; format: in vivo; details: C203, sc, Subcutaneous, mice, mg/kg × 2, doses given 1 and 4 hours postinfection, read-out: ED50
Method in brief: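 Activity is given as ED50, the mg/kg dose (×2) protecting half of the mice infected with S. pyogenes C203. Compound was dosed 1 and 4 h after infection.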

Pasteurella multocida = Pasteurella multocida infection in one-day-old chicks; format: in vivo; details: subcutaneously, 30 mg/kg × 2, 1 and 4 hours post-challenge
Description: Some of the formula 1 compounds have also shown in vivo antibacterial activity against infections induced by Gram-negative bacteria. Table VI summarizes the results of tests in which illustrative compounds were evaluated against a Pasteurella infection in one-day-old chicks. The compounds were administered by subcutaneous injection at a dosage of 30 mg/kg, 1 and 4 hours post-challenge of the chicks with Pasteurella multocida (0.1 ml of a 10^-4 dilution of a twenty-hour tryptose broth culture of an avian P. multocida given subcutaneously). In these tests, unless indicated otherwise, all non-medicated infected chicks died within 24 hours of Pasteurella challenge.
^a Administered subcutaneously; 30 mg/kg × 2

[27] = tested on: Haemophilus influenzae 76; experiment: standard agar-dilution MIC assay; format: cell-based; details: Haemophilus influenzae, 76
Description: as §1

[28] = tested on: Haemophilus influenzae C.L.; experiment: standard agar-dilution MIC assay; format: cell-based; details: Haemophilus influenzae
Description: as §1

[29] = broth-dilution microtiter, read-out: MIC

Row | Compound | MIC [3] [µg/mL] | MIC [4] [µg/mL] | MIC [5] [µg/mL] | MIC [6] [µg/mL] | MIC [7] [µg/mL] | MIC [8] [µg/mL] | MIC [9] [µg/mL] | MIC [10] [µg/mL] | MIC [11] [µg/mL] | MIC [12] [µg/mL] | MIC [14] [µg/mL] | MIC [15] [µg/mL] | MIC [16] [µg/mL] | MIC (Mycoplasma hyorhinis 29E) [µg/mL] | MIC [20] [µg/mL] | MIC [21] [µg/mL] | MIC [22] [µg/mL] | MIC [23] [µg/mL] | MIC [24] [µg/mL] | MIC [25] [µg/mL] | further results
1 | CCC1OC(=O)CC(O)C(C)C(OC2OC(C)C(O)C(N(C)C)C2OC(C)=O)C(CC=O)CC(C)C(=O)C=CC(C)=CC1COC1OC(C)C(OC(C)=O)C(O)C1OC (stereo not drawn) [Compound 21, 2',4"-Di-O-acetyl-lactenocin] | 4 (≈ 4.75 µM) | 2 (≈ 2.38 µM) | 8 (≈ 9.5 µM) | 4 (≈ 4.75 µM) | 2 (≈ 2.38 µM) | 4 (≈ 4.75 µM) | 4 (≈ 4.75 µM) | 1 (≈ 1.19 µM) | 4 (≈ 4.75 µM) | 1 (≈ 1.19 µM) | 50 (≈ 59.4 µM) | 3.12 (≈ 3.71 µM) | 50 (≈ 59.4 µM) | 6.25 (≈ 7.42 µM) | 12.5 (≈ 14.8 µM) | 12.5 (≈ 14.8 µM) | 12.5 (≈ 14.8 µM) | 12.5 (≈ 14.8 µM) | 12.5 (≈ 14.8 µM) | 3.12 (≈ 3.71 µM) | MIC (Escherichia coli EC14; agar-dilution, read-out: MIC): > 128 µg/mL; MIC ([1]; agar-dilution, read-out: MIC): > 128 µg/mL; MIC ([2]; agar-dilution, read-out: MIC): > 128 µg/mL; MIC [13, 29]: > 50 µg/mL; MIC (Mycoplasma synoviae 40A): 3.12 µg/mL (≈ 3.71 µM); MIC [17]: 50 µg/mL (≈ 59.4 µM); MIC [18]: 50 µg/mL (≈ 59.4 µM); MIC [19]: 50 µg/mL (≈ 59.4 µM); MIC (Streptococcus sp. 19F): 1.56 µg/mL (≈ 1.85 µM); ED50 [26]: 5.5 mg/kg; Number of Deaths/Number Treated (Pasteurella multocida): 3/10
2 | CCC1OC(=O)CC(O)C(C)C(OC2OC(C)C(OC3CC(C)(O)C(O)C(C)O3)C(N(C)C)C2OC(C)=O)C(CC=O)CC(C)C(=O)C=CC(C)=CC1COC1OC(C)C(OC(=O)Cc2ccccc2)C(O)C1OC (stereo not drawn) [Compound 9, 2'-O-Acetyl-4'"-O-phenylacetyl-macrocin] | 1 (≈ 0.941 µM) | 1 (≈ 0.941 µM) | 2 (≈ 1.88 µM) | 2 (≈ 1.88 µM) | 2 (≈ 1.88 µM) | 0.5 (≈ 0.471 µM) | 1 (≈ 0.941 µM) | 0.5 (≈ 0.471 µM) | 2 (≈ 1.88 µM) | 0.25 (≈ 0.235 µM) | 12.5 (≈ 11.8 µM) | 0.78 (≈ 0.734 µM) | 12.5 (≈ 11.8 µM) | 1.56 (≈ 1.47 µM) | > 50 | > 50 | > 50 | > 50 | > 50 | 3.12 (≈ 2.94 µM) | MIC (Escherichia coli EC14): > 128 µg/mL; MIC [27]: 32 µg/mL (≈ 30.1 µM); MIC [28]: 32 µg/mL (≈ 30.1 µM); MIC [1]: > 128 µg/mL; MIC [2]: > 128 µg/mL; MIC [13]: > 50 µg/mL; MIC [17]: > 50 µg/mL; MIC [18]: > 50 µg/mL; MIC [19]: > 50 µg/mL; MIC (Streptococcus sp. 19F): 1.56 µg/mL (≈ 1.47 µM); Number of Deaths/Number Treated (Pasteurella multocida): 10/10
3 | CCC1OC(=O)CC(O)C(C)C(OC2OC(C)C(O)C(N(C)C)C2OC(C)=O)C(CC=O)CC(C)C(=O)C=CC(C)=CC1COC1OC(C)C(OC(C)=O)C(OC(C)=O)C1OC (stereo not drawn) [Compound 23, 2',3",4"-Tri-O-acetyl-lactenocin] | 2 (≈ 2.26 µM) | 2 (≈ 2.26 µM) | 4 (≈ 4.52 µM) | 2 (≈ 2.26 µM) | 2 (≈ 2.26 µM) | 4 (≈ 4.52 µM) | 8 (≈ 9.05 µM) | 2 (≈ 2.26 µM) | 2 (≈ 2.26 µM) | 2 (≈ 2.26 µM) | 50 (≈ 56.6 µM) | 1.56 (≈ 1.76 µM) | 50 (≈ 56.6 µM) | 12.5 (≈ 14.1 µM) | 25 (≈ 28.3 µM) | 50 (≈ 56.6 µM) | 50 (≈ 56.6 µM) | 50 (≈ 56.6 µM) | 25 (≈ 28.3 µM) | 6.25 (≈ 7.07 µM) | MIC (Escherichia coli EC14; agar-dilution, read-out: MIC): > 128 µg/mL; MIC ([1]; agar-dilution, read-out: MIC): > 128 µg/mL; MIC ([2]; agar-dilution, read-out: MIC): > 128 µg/mL; MIC [13, 29]: > 50 µg/mL; MIC (Mycoplasma synoviae 40A): 6.25 µg/mL (≈ 7.07 µM); MIC [17, 29]: > 50 µg/mL; MIC [18, 29]: > 50 µg/mL; MIC [19, 29]: > 50 µg/mL; MIC (Streptococcus sp. 19F): 1.56 µg/mL (≈ 1.76 µM); ED50 [26]: 6.8 mg/kg; Number of Deaths/Number Treated (Pasteurella multocida): 10/10
